# Measurements: ChEMBL document CHEMBL1221250, “Modification at the acidic domain of RXR agonists has little effect on permissive RXR-heterodimer activation” (Bioorg Med Chem Lett, 2010)
# pEC50: −log10 of the molar value. Calls of active or inactive are those of the source. The calls are words filed in the database; no cut-off is given here.
# Columns and labels:
# [1] = target: RXR alpha/PPAR gamma (Homo sapiens) (UniProt P37231+P19793); assay: Transactivation of PPARgamma/RXRalpha heterodimer; assay type: protein-complex assay
# [2] = target: T1, Retinoic acid receptor RXR-alpha (Homo sapiens, UniProt P19793); assay: Agonist activity at RXRalpha by luciferase reporter gene assay; assay type: functional
# T1 sequence (P19793 whole entry): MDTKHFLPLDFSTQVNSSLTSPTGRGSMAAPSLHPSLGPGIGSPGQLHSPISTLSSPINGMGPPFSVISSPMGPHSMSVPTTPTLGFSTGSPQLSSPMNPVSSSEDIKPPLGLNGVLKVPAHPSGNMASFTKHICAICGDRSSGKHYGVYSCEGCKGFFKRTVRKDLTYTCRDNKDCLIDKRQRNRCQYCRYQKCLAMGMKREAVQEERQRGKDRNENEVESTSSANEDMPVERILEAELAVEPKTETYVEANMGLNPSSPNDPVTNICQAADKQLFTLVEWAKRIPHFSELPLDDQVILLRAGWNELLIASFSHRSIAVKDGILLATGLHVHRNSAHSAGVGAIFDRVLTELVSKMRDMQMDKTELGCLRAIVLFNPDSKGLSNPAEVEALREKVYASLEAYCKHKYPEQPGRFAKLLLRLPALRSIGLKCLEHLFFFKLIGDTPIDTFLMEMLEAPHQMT
# [3] = target: T2, Peroxisome proliferator-activated receptor gamma (Homo sapiens) (UniProt P37231); assay: Transactivation of PPARgamma
# T2 sequence (whole entry): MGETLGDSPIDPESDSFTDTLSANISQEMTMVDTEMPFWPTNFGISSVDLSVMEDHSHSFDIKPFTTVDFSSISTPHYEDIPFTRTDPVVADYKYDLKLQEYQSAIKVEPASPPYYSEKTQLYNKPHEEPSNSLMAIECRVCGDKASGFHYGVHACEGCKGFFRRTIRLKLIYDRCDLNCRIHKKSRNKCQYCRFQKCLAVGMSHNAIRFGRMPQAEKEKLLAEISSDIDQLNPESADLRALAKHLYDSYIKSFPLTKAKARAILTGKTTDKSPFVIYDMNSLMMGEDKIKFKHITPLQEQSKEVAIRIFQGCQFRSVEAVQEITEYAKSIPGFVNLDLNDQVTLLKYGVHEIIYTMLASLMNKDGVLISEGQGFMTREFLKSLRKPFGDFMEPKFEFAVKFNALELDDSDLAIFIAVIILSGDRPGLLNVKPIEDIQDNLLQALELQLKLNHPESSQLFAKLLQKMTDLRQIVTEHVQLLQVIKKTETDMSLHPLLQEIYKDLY
# [4] = target: T3, Retinoic acid receptor alpha (Homo sapiens) (UniProt P10276); assay: Transactivation of RARalpha in human COS7 cells at 10 uM by luciferase reporter gene assay; assay type: cell-based; settings: COS-7
# T3 sequence (whole entry): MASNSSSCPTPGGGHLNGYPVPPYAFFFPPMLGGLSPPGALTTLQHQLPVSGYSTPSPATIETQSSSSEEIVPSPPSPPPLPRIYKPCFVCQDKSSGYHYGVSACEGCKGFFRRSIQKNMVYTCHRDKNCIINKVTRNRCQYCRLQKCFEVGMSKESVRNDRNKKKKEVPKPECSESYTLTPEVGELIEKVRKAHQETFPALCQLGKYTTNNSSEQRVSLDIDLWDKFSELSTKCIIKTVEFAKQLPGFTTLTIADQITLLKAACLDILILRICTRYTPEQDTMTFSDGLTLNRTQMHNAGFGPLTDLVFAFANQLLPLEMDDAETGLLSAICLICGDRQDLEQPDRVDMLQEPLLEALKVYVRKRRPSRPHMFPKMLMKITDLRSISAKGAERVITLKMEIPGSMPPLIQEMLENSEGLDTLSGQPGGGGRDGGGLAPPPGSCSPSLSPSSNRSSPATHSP
# [5] = target: T4, Oxysterols receptor LXR-alpha (Homo sapiens) (UniProt Q13133); assay: Transactivation of LXRalpha
# T4 sequence (whole entry): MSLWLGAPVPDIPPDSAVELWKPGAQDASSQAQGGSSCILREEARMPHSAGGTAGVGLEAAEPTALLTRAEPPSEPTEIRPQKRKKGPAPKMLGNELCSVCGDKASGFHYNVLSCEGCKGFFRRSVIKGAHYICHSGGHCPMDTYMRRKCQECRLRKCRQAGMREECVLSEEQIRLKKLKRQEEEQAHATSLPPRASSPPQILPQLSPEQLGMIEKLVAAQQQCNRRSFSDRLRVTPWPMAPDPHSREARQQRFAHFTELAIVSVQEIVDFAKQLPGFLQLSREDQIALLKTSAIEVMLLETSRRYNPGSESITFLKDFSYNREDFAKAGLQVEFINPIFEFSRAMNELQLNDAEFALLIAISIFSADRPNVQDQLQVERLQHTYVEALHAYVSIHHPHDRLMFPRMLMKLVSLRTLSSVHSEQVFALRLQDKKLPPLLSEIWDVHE
# [6] = target: Retinoic acid receptor RXR-alpha/oxysterols receptor LXR-alpha (Homo sapiens) (UniProt P19793+Q13133); assay: Transactivation of LXRalpha/RXRalpha; assay type: protein-complex assay
# [7] = target: T5, Retinoic acid receptor RXR-alpha (Homo sapiens) (UniProt P19793); assay: Transactivation of RXRalpha in human COS7 cells at 10 uM by luciferase reporter gene assay; assay type: cell-based; settings: COS-7
# T5 sequence (whole entry): T1 sequence (P19793 whole entry)
Activity [1],pEC50 [2],Activity [3],Activity [4],Activity [5],Activity [6],Activity [7],SMILES
40%,6.69,inactive,inactive,inactive,60%,,CCN(c1ccc2c(c1)C(C)(C)CCC2(C)C)c1ccc(-c2nnn[nH]2)cn1
,,,inactive,,,inactive,CCN(c1ccc2c(c1)C(C)(C)CCC2(C)C)c1ccc(P(=O)(O)O)cn1
60%,8.28,inactive,inactive,inactive,60%,,CCN(c1ccc2c(c1)C(C)(C)CCC2(C)C)c1ccc(C(=O)O)cn1
20%,,inactive,inactive,inactive,50%,,CCN(c1ccc2c(c1)C(C)(C)CCC2(C)C)c1ccc(C(=O)NO)cn1
